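Values below derive from 48-hour exposures of cells grown in 96-well plates, with endpoints linearly interpolated between the two concentrations bracketing the appropriate inhibition level. At the TGI there is no net growth.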 Where a SMILES comes first, the peptide text is derived from it. [ ]: non-standard residue; d: D form. The star is where a group is joined. Cbz = O=C(OCc1ccccc1)*; Aib = CC(C)(N)C(=O)O
Key:
Experiment in all cases: NCI tumour cell line growth inhibition, 48 h
HL-60(TB) leukemia = tested on: HL-60(TB) leukemia
DU-145 prostate = tested on: DU-145 prostate
NCI-H226 lung = tested on: NCI-H226 lung
MDA-MB-231 breast = tested on: MDA-MB-231 breast
HOP-92 NSCLC = tested on: HOP-92 NSCLC
CCRF-CEM leukemia = tested on: CCRF-CEM leukemia
M14 melanoma = tested on: M14 melanoma
786-0 renal = tested on: 786-0 renal
HOP-62 NSCLC = tested on: HOP-62 NSCLC
MDA-N = tested on: MDA-N
IGROV1 ovarian = tested on: IGROV1 ovarian
COLO 205 colon = tested on: COLO 205 colon
SN12C renal = tested on: SN12C renal
NCI-H522 lung = tested on: NCI-H522 lung
SK-MEL-5 melanoma = tested on: SK-MEL-5 melanoma
EKVX NSCLC = tested on: EKVX NSCLC
MOLT-4 leukemia = tested on: MOLT-4 leukemia
OVCAR-5 ovarian = tested on: OVCAR-5 ovarian
OVCAR-3 ovarian = tested on: OVCAR-3 ovarian
HS 578T breast = tested on: HS 578T breast
SW-620 colon = tested on: SW-620 colon
ACHN renal = tested on: ACHN renal
HCC-2998 colon = tested on: HCC-2998 colon
A549 NSCLC = tested on: A549 NSCLC
U251 CNS = tested on: U251 CNS
OVCAR-4 ovarian = tested on: OVCAR-4 ovarian
MDA-MB-435 = tested on: MDA-MB-435
TK-10 renal = tested on: TK-10 renal
MALME-3M melanoma = tested on: MALME-3M melanoma
RXF 393 renal = tested on: RXF 393 renal
RPMI-8226 leukemia = tested on: RPMI-8226 leukemia
LOX IMVI melanoma = tested on: LOX IMVI melanoma
UACC-62 melanoma = tested on: UACC-62 melanoma
OVCAR-8 ovarian = tested on: OVCAR-8 ovarian
K-562 leukemia = tested on: K-562 leukemia
SK-MEL-28 melanoma = tested on: SK-MEL-28 melanoma
HT29 colon = tested on: HT29 colon
SF-539 CNS = tested on: SF-539 CNS
SF-268 CNS = tested on: SF-268 CNS
KM12 colon = tested on: KM12 colon
UACC-257 melanoma = tested on: UACC-257 melanoma
CAKI-1 renal = tested on: CAKI-1 renal
NCI-H23 lung = tested on: NCI-H23 lung
PC-3 prostate = tested on: PC-3 prostate
HCT-116 colon = tested on: HCT-116 colon
MCF7 breast = tested on: MCF7 breast
SNB-75 CNS = tested on: SNB-75 CNS
NCI-H460 lung = tested on: NCI-H460 lung
SF-295 CNS = tested on: SF-295 CNS
UO-31 renal = tested on: UO-31 renal
NCI/ADR-RES ovarian = tested on: NCI/ADR-RES ovarian
SR leukemia = tested on: SR leukemia
SNB-19 CNS = tested on: SNB-19 CNS
HCT-15 colon = tested on: HCT-15 colon
SK-MEL-2 melanoma = tested on: SK-MEL-2 melanoma
T-47D breast = tested on: T-47D breast
SK-OV-3 ovarian = tested on: SK-OV-3 ovarian
A498 renal = tested on: A498 renal

Cc1ccc2c(=O)cc(-c3cccc(F)c3)[nH]c2n1
TGI (HL-60(TB) leukemia): 0.0621 µM
TGI (DU-145 prostate): 1.23 µM
TGI (NCI-H226 lung): 0.475 µM
TGI (MDA-MB-231 breast): 1.11 µM
TGI (HOP-92 NSCLC): > 100 µM
TGI (CCRF-CEM leukemia): > 100 µM
TGI (M14 melanoma): > 100 µM
TGI (786-0 renal): > 100 µM
TGI (HOP-62 NSCLC): > 100 µM
TGI (MDA-N): 0.0362 µM
TGI (IGROV1 ovarian): > 100 µM
TGI (COLO 205 colon): 0.0567 µM
TGI (SN12C renal): > 100 µM
TGI (NCI-H522 lung): 0.0504 µM
TGI (SK-MEL-5 melanoma): 2.16 µM
TGI (EKVX NSCLC): > 100 µM
TGI (MOLT-4 leukemia): > 100 µM
TGI (OVCAR-5 ovarian): > 100 µM
TGI (OVCAR-3 ovarian): 0.0415 µM
TGI (HS 578T breast): 0.0591 µM
TGI (SW-620 colon): > 100 µM
TGI (ACHN renal): > 100 µM
TGI (HCC-2998 colon): 0.401 µM
TGI (A549 NSCLC): > 100 µM
TGI (U251 CNS): > 74.7 µM
TGI (OVCAR-4 ovarian): > 100 µM
TGI (MDA-MB-435): 0.0224 µM
TGI (TK-10 renal): > 100 µM
TGI (MALME-3M melanoma): > 100 µM
TGI (RXF 393 renal): > 100 µM
TGI (RPMI-8226 leukemia): > 19.8 µM
TGI (LOX IMVI melanoma): > 100 µM
TGI (UACC-62 melanoma): > 100 µM
TGI (OVCAR-8 ovarian): 1.87 µM
TGI (K-562 leukemia): > 100 µM
TGI (SK-MEL-28 melanoma): > 100 µM
TGI (HT29 colon): 1.11 µM
TGI (SF-539 CNS): 0.78 µM
TGI (SF-268 CNS): > 100 µM
TGI (KM12 colon): 1.29 µM
TGI (UACC-257 melanoma): > 100 µM
TGI (CAKI-1 renal): > 100 µM
TGI (NCI-H23 lung): 0.739 µM

Nc1ccc(C(=O)O)cc1
TGI (HL-60(TB) leukemia): > 100 µM
TGI (DU-145 prostate): > 100 µM
TGI (NCI-H226 lung): > 100 µM
TGI (MDA-MB-231 breast): > 100 µM
TGI (HOP-92 NSCLC): > 100 µM
TGI (CCRF-CEM leukemia): > 100 µM
TGI (M14 melanoma): > 100 µM
TGI (PC-3 prostate): > 100 µM
TGI (HCT-116 colon): > 100 µM
TGI (786-0 renal): > 100 µM
TGI (HOP-62 NSCLC): > 100 µM
TGI (MCF7 breast): > 100 µM
TGI (MDA-N): > 100 µM
TGI (IGROV1 ovarian): > 100 µM
TGI (COLO 205 colon): > 100 µM
TGI (SN12C renal): > 100 µM
TGI (NCI-H522 lung): > 100 µM
TGI (SK-MEL-5 melanoma): > 100 µM
TGI (EKVX NSCLC): > 100 µM
TGI (MOLT-4 leukemia): > 100 µM
TGI (OVCAR-5 ovarian): > 100 µM
TGI (OVCAR-3 ovarian): > 100 µM
TGI (HS 578T breast): > 100 µM
TGI (SW-620 colon): > 100 µM
TGI (ACHN renal): > 100 µM
TGI (HCC-2998 colon): > 100 µM
TGI (A549 NSCLC): > 100 µM
TGI (U251 CNS): > 100 µM
TGI (OVCAR-4 ovarian): > 100 µM
TGI (SNB-75 CNS): > 100 µM
TGI (MDA-MB-435): > 100 µM
TGI (TK-10 renal): > 100 µM
TGI (MALME-3M melanoma): > 100 µM
TGI (NCI-H460 lung): > 100 µM
TGI (SF-295 CNS): > 100 µM
TGI (UO-31 renal): > 100 µM
TGI (RPMI-8226 leukemia): > 100 µM
TGI (LOX IMVI melanoma): > 100 µM
TGI (OVCAR-8 ovarian): > 100 µM
TGI (NCI/ADR-RES ovarian): > 100 µM
TGI (K-562 leukemia): > 100 µM
TGI (SK-MEL-28 melanoma): > 100 µM
TGI (HT29 colon): > 100 µM
TGI (SR leukemia): > 100 µM
TGI (SF-539 CNS): > 100 µM
TGI (SF-268 CNS): > 100 µM
TGI (KM12 colon): > 100 µM
TGI (SNB-19 CNS): > 100 µM
TGI (UACC-257 melanoma): > 100 µM
TGI (HCT-15 colon): 52 µM
TGI (CAKI-1 renal): > 100 µM
TGI (SK-MEL-2 melanoma): > 100 µM
TGI (T-47D breast): > 100 µM
TGI (NCI-H23 lung): > 100 µM

CC(C)(NC(=O)C(C)(C)NC(=O)OCc1ccccc1)C(=O)O (Cbz-[Aib]-[Aib]-OH)
TGI (DU-145 prostate): > 100 µM
TGI (NCI-H226 lung): > 100 µM
TGI (MDA-MB-231 breast): > 100 µM
TGI (HOP-92 NSCLC): > 100 µM
TGI (CCRF-CEM leukemia): > 100 µM
TGI (M14 melanoma): > 100 µM
TGI (PC-3 prostate): > 100 µM
TGI (HCT-116 colon): > 100 µM
TGI (786-0 renal): > 100 µM
TGI (HOP-62 NSCLC): > 100 µM
TGI (MCF7 breast): > 100 µM
TGI (MDA-N): > 100 µM
TGI (IGROV1 ovarian): > 100 µM
TGI (SN12C renal): > 100 µM
TGI (NCI-H522 lung): > 100 µM
TGI (SK-MEL-5 melanoma): > 100 µM
TGI (EKVX NSCLC): > 100 µM
TGI (MOLT-4 leukemia): > 100 µM
TGI (SK-OV-3 ovarian): > 100 µM
TGI (OVCAR-5 ovarian): > 100 µM
TGI (OVCAR-3 ovarian): > 100 µM
TGI (HS 578T breast): > 100 µM
TGI (A498 renal): > 100 µM
TGI (SW-620 colon): > 100 µM
TGI (ACHN renal): > 100 µM
TGI (HCC-2998 colon): > 100 µM
TGI (A549 NSCLC): > 100 µM
TGI (U251 CNS): > 100 µM
TGI (OVCAR-4 ovarian): > 100 µM
TGI (SNB-75 CNS): > 100 µM
TGI (MDA-MB-435): > 100 µM
TGI (TK-10 renal): > 100 µM
TGI (MALME-3M melanoma): > 100 µM
TGI (NCI-H460 lung): > 100 µM
TGI (SF-295 CNS): > 100 µM
TGI (UO-31 renal): > 100 µM
TGI (RPMI-8226 leukemia): > 100 µM
TGI (LOX IMVI melanoma): > 100 µM
TGI (UACC-62 melanoma): > 100 µM
TGI (OVCAR-8 ovarian): > 100 µM
TGI (NCI/ADR-RES ovarian): > 100 µM
TGI (K-562 leukemia): > 100 µM
TGI (SK-MEL-28 melanoma): > 100 µM
TGI (HT29 colon): > 100 µM
TGI (SR leukemia): > 100 µM
TGI (SF-539 CNS): > 100 µM
TGI (SF-268 CNS): > 100 µM
TGI (KM12 colon): > 100 µM
TGI (SNB-19 CNS): > 100 µM
TGI (UACC-257 melanoma): > 100 µM
TGI (HCT-15 colon): > 100 µM
TGI (CAKI-1 renal): > 100 µM
TGI (SK-MEL-2 melanoma): > 100 µM
TGI (T-47D breast): > 100 µM
TGI (NCI-H23 lung): > 100 µM

Source: PubChem BioAssay (NCI)
